According to article PMC11187126, “Structure and dynamics of the pyroglutamylated RF-amide peptide QRFP receptor GPR103” (Nature Communications, 2024):
Where two headings read alike, the source gives them in different places. No end group written: not given here.

Molecular target: T1, GPR103 F25N-termA (Homo sapiens, UniProt Q96P65, F25A)
T1 construct: we used human full-length QRFPR-encoding plasmids; expressed in transfected cells; host or cells: HEK293 cells, pCAGGS vector
T1 sequence (Q96P65 1-431 F25A): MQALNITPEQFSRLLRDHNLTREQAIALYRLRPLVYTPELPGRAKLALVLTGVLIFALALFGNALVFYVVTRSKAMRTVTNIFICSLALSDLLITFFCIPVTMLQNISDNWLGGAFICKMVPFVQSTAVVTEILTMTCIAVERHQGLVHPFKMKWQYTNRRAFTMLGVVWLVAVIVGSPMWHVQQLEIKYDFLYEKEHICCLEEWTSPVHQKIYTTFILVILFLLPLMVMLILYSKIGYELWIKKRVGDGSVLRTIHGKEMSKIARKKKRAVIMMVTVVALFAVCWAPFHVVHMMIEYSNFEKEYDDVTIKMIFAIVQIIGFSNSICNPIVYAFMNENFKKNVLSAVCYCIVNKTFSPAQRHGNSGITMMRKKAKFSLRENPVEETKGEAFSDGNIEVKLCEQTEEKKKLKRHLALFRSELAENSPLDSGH
Experiment: TGFα shedding assay; Exp. level >WT (1:1)
Format: cell-based

Emax (Exp. #1): 108.31 % WT
Emax (Exp. #2): 103.77 % WT
Emax (Exp. #3): 108.41 % WT
Emax (mean, read-out: Emax): 107%
EC50 (n = 3): 79.4 nM
Emax (n = 3, read-out: Emax): 110 ± 1.2%
Substance: TSGPLGNLAEELNGYSRKKGGFSFRF-NH2 [QRFP26]
